Experimental data published in patent publication US4036979A, “Compositions containing 4,5,6,7-tetrahydrobenz[b]thien-4-yl-ureas or derivatives and methods of enhancing growth rate” (American Cyanamid Company, priority 1976, dated 1977).
Where “and” joins values, the source holds several entries; their conditions need not be identical. Equal values may be shown once.

Assay: Growth enhancement and feed efficiency improvement in sheep fed levels of test compounds (six weeks)
Type: in vivo, sheep (Wether lambs)
Conditions: 15 ppm in feed; average of 5 replications
Description: To determine the effect of feeding experimental compounds on sheep performance, Wether lambs are randomly allotted to pens in groups of six. The sheep are weighed and permitted feed and water ad libitum. The feed is weighed daily, and uneaten feed from the previous day is collected and weighed. Test lambs receive the same diet as control animals but with the addition of experimental compound at a concentration of either 15 or 60 ppm. At the end of the six-week treatment period, the lambs are again weighed, and total feed is calculated.
In these tests, five replicates of six lambs each per treatment are used.

| SMILES | Average Daily Gain (kg)/Lamb, av. [kg] | Six-Week Feed/Gain, av. |
| --- | --- | --- |
| NC(=O)NC1CCC(=O)c2sccc21 (stereo not shown) [Compound B, 4,5,6,7-tetrahydro-7-oxobenzo[b]thien-4-ylurea] | 0.202 | 6.216 |

Same assay, conditions: 15 ppm in feed; replications 1 to 5

| SMILES | Average Daily Gain (kg)/Lamb | Six-Week Feed/Gain |
| --- | --- | --- |
| NC(=O)NC1CCC(=O)c2sccc21 (stereo not shown) [Compound B, 4,5,6,7-tetrahydro-7-oxobenzo[b]thien-4-ylurea] | 0.187 kg and 0.208 kg and 0.218 kg and 0.186 kg and 0.210 kg | 6.785 and 6.067 and 5.344 and 6.795 and 6.089 |

Same assay, conditions: 60 ppm in feed; average of 5 replications

| SMILES | Average Daily Gain (kg)/Lamb, av. [kg] | Six-Week Feed/Gain, av. |
| --- | --- | --- |
| NC(=O)NC1CCC(=O)c2sccc21 (stereo not shown) [Compound B, 4,5,6,7-tetrahydro-7-oxobenzo[b]thien-4-ylurea] | 0.208 | 5.151 |

Same assay, conditions: 60 ppm in feed; replications 1 to 5

| SMILES | Average Daily Gain (kg)/Lamb | Six-Week Feed/Gain |
| --- | --- | --- |
| NC(=O)NC1CCC(=O)c2sccc21 (stereo not shown) [Compound B, 4,5,6,7-tetrahydro-7-oxobenzo[b]thien-4-ylurea] | 0.216 kg and 0.207 kg and 0.237 kg and 0.189 kg and 0.190 kg | 6.116 and 6.263 and 5.144 and 6.723 and 6.506 |

Assay: Mouse Growth Regulant Tests (12-day weight gain over controls, compound in diet)
Type: in vivo, CFI female mice
Conditions: Mus musculus, feed or water, 288 h, Table VI; 400 ppm in diet
Procedure: CFI female mice from Carworth Farms are received when they are six weeks old. They are housed ten to a cage in air-conditioned rooms (72° F. to 76° F.) with automatically controlled lights, 14 hours on and 10 hours off. The basal diet used in these studies is Purina Laboratory Chow (see description below), which is supplied ad libitum. Water is also allowed ad libitum.
Thirteen days after arrival, the mice are weighed in groups of ten and assigned at random to the different treatments. Twelve days later the mice are weighed again and the experiment terminated. At least three cages (30 mice) of untreated controls are included in each test. Test data are provided in Tables VI, VII, VIII, and IX below wherein data are reported as percent weight gain over controls. Unless otherwise indicated in these tables, all compounds tested were dl-racemic mixtures. The following is a description of the diet to which the growth promoting compounds were added.

| SMILES | change in vivo at 400 ppm [%] |
| --- | --- |
| CCCCN(CCCC)C(=O)NC1CCCc2sccc21 (stereo not shown) [Table VI: O,H,H,H,n-butyl,n-butyl, 1,1-dibutyl-3-(4,5,6,7-tetrahydrobenzo[b]thien-4-yl)urea] | 6 |
| NC(=O)NC1CCCc2sc([N+](=O)[O-])cc21 (stereo not shown) [Table VI: O,NO2,H,H,H,H, 2-nitro-4,5,6,7-tetrahydrobenzo[b]thien-4-ylurea] | 17 |
| CNC(=S)NC1CCCc2sc(C)cc21 (stereo not shown) [Table VI: S,CH3,H,H,CH3,H] | 88.5 |
| CON(C)C(=S)NC1CCCc2sccc21 (stereo not shown) [Table VI: S,H,H,H,CH3,OCH3] | 66 |
| CCNC(=S)NC1CCCc2sccc21 (stereo not shown) [Table VI: S,H,H,H,H,C2H5, 1-ethyl-3-(4,5,6,7-tetrahydrobenzo[b]thien-4-yl)thiourea] | 54.6 |
| C=CCNC(=S)NC1CCCc2sccc21 (stereo not shown) [Table VI: S,H,H,H,H,CH2CHCH] | 60 |
| CCOC(=O)NC(=S)NC1CCCc2sccc21 (stereo not shown) [Table VI: S,H,H,H,H,CO2C2H5] | 22.3 |
| NC(=S)NC1CCCc2sccc21 (stereo not shown) [Table VI: S,H,H,H,H,H, 4,5,6,7-tetrahydrobenzo[b]thien-4-yl thiourea] | 11 |
| CCCCCCCCNC(=S)NC1CCCc2sccc21 (stereo not shown) [Table VI: S,H,H,H,H,n-C8H17] | 16 |
| CCCCNC(=S)NC1CCCc2sccc21 (stereo not shown) [Table VI: S,H,H,H,H,n-butyl] | 75 |

Same assay, conditions: Mus musculus, feed or water, 288 h, Table VII; 200 ppm in diet

| SMILES | change in vivo at 200 ppm [%] |
| --- | --- |
| CN(C)C(=O)NC1CCC(=O)c2sccc21 (stereo not shown) [Table VII: O,CH3,CH3, 1,1-dimethyl-3-(4,5,6,7-tetrahydro-7-oxobenzo[b]thien-4-yl)urea] | 58.6 |
| CON(C)C(=O)NC1CCC(=O)c2sccc21 (stereo not shown) [Table VII: O,CH3,OCH3, 1-methoxy-1-methyl-3-(4,5,6,7-tetrahydro-7-oxobenzo[b]thien-4-yl)urea] | 62.6 |
| CN(O)C(=O)NC1CCC(=O)c2sccc21 (stereo not shown) [Table VII: O,CH3,OH] | 31.3 |
| C#CCNC(=O)NC1CCC(=O)c2sccc21 (stereo not shown) [Table VII: O,H,CH2CCH, 1-(2-propynyl)-3-(4,5,6,7-tetrahydro-7-oxobenzo[b]thien-4-yl)urea] | 40.6 |
| CONC(=O)NC1CCC(=O)c2sccc21 (stereo not shown) [Table VII: O,H,OCH3] | 71 |
| CC(C)NC(=O)NC1CCC(=O)c2sccc21 (stereo not shown) [Table VII: O,H,iso-C3H7] | 84 |

Same assay, conditions: Mus musculus, feed or water, 288 h, Table VII; 400 ppm in diet

| SMILES | change in vivo at 400 ppm [%] |
| --- | --- |
| CCNC(=O)NC1CCC(=O)c2sccc21 (stereo not shown) [Table VII: O,H,C2H5, 1-ethyl-3-(4,5,6,7-tetrahydro-7-oxobenzo[b]thien-4-yl)urea] | 79.3 |
| C=CCNC(=O)NC1CCC(=O)c2sccc21 (stereo not shown) [Table VII: O,H,CH2CHCH2] | 58.7 |
| COCNC(=O)NC1CCC(=O)c2sccc21 (stereo not shown) [Table VII: O,H,CH2OCH3, 1-(methoxymethyl)-3-(4,5,6,7-tetrahydro-7-oxobenzo[b]thien-4-yl)urea] | 143 |
| CNC(=O)NC1CCC(=O)c2sccc21 (stereo not shown) [Table VII: O,H,CH3, 1-methyl-3-(4,5,6,7-tetrahydro-7-oxobenzo[b]thien-4-yl)urea] | 64.8 |
| CCCCCCCCNC(=O)NC1CCC(=O)c2sccc21 (stereo not shown) [Table VII: O,H,n-C8H17] | 83.4 |
| CCCCCCCCCCNC(=O)NC1CCC(=O)c2sccc21 (stereo not shown) [Table VII: O,H,n-C10H21] | 15.4 |
| CCCCCCCCCCCCNC(=O)NC1CCC(=O)c2sccc21 (stereo not shown) [Table VII: O,H,n-C12H25, 1-n-dodecyl-3-(4,5,6,7-tetrahydro-7-oxobenzo[b]thien-4-yl)urea] | 4.1 |
| CCCCCCCCCCCCCCNC(=O)NC1CCC(=O)c2sccc21 (stereo not shown) [Table VII: O,H,n-C14H29] | 9.7 |
| CNC(=S)NC1CCC(=O)c2sccc21 (stereo not shown) [Table VII: S,H,CH3] | 62.5 |

Same assay, conditions: Mus musculus, feed or water, 288 h, Table VIII; 50 ppm in diet

| SMILES | change in vivo at 50 ppm [%] |
| --- | --- |
| C#CCNC(=O)NC1CCC(O)c2sccc21 (stereo not shown) [Table VIII: O,H,CH2CCH, 1-(2-propynyl)-3-(7-hydroxy-4,5,6,7-tetrahydrobenzo[b]thien-4-yl)urea] | 49.2 |

Same assay, conditions: Mus musculus, feed or water, 288 h, Table VIII; 200 ppm in diet

| SMILES | change in vivo at 200 ppm [%] |
| --- | --- |
| CON(C)C(=O)NC1CCC(O)c2sccc21 (stereo not shown) [Table VIII: O,CH3,OCH3, 1-methyl-1-methoxy-3-(7-hydroxy-4,5,6,7-tetrahydrobenzo[b]-thien-4-yl)urea] | 60.5 |
| CCNC(=O)NC1CCC(O)c2sccc21 (stereo not shown) [Table VIII: O,H,C2H5, 1-ethyl-3-(7-hydroxy-4,5,6,7-tetrahydrobenzo[b]thien-4-yl)urea] | 73.4 |
| CC(C)NC(=O)NC1CCC(O)c2sccc21 (stereo not shown) [Table VIII: O,H,iso-C3H7] | 43.9 |

Same assay, conditions: Mus musculus, feed or water, 288 h, Table VIII; 400 ppm in diet

| SMILES | change in vivo at 400 ppm [%] |
| --- | --- |
| CN(C)C(=O)NC1CCC(O)c2sccc21 (stereo not shown) [Table VIII: O,CH3,CH3, 1,1-dimethyl-3-(7-hydroxy-4,5,6,7-tetrahydrobenzo[b]thien-4-yl)urea] | 81.5 |
| C=CCNC(=O)NC1CCC(O)c2sccc21 (stereo not shown) [Table VIII: O,H,CH2CHCH2, 1-allyl-3-(7-hydroxy-4,5,6,7-tetrahydrobenzo[b]thien-4-yl)-urea] | 29.1 |
| COCNC(=O)NC1CCC(O)c2sccc21 (stereo not shown) [Table VIII: O,H,CH2OCH3, 1-(methoxymethyl)-3-(4,5,6,7-tetrahydro-7-hydroxybenzo[b]thien-4-yl)urea] | 124 |
| CNC(=O)NC1CCC(O)c2sccc21 (stereo not shown) [Table VIII: O,H,CH3, 1-methyl-3-(7-hyroxy-4,5,6,7-tetrahydrobenzo[b]thien-4-yl)urea] | 60.2 |
| CONC(=O)NC1CCC(O)c2sccc21 (stereo not shown) [Table VIII: O,H,OCH3, 1-methoxy-3-(7-hydroxy-4,5,6,7-tetrahydrobenzo[b]thien-4-yl)urea] | 66.7 |
| CNC(=S)NC1CCC(O)c2sccc21 (stereo not shown) [Table VIII: S,H,CH3] | 85.1 |
